Reference: patent US20100292306A1, “Compositions And Methods For The Treatment Of Muscular Dystrophy” (priority 2005, published 2010)
“Also recorded” adds a separate entry of the source.

Experiments:
nuclear NF-κB activation = conditions: long term treatment; Messina et al. (2006); cited from earlier work
NFκB = experiment: Trans AM assays of NFκB in gastrocnemius muscle preparations; assay type: in vivo, mdx mice; conditions: chronic PDTC
Excerpt: The Trans AM assay and corresponding electrophoretic mobility shift assays (EMSA), along with Western Blot analyses of IκB-α (FIG. 1) and total cellular NFκB, are useful for screening compounds that inhibit the NFκB pathway in dystrophic skeletal muscle and identifying new compounds that have corresponding beneficial effects in treating dystrophic subjects.

mdx mice = experiment: Noninvasive whole body tension (WBT) measurement of forward pulling tensions; assay type: in vivo
Excerpt: FIG. 18 presents individual “forward pulling tensions” (FPTs; upward deflections) recorded from a PDTC-treated mouse (Series 2) using the whole body tension (WBT) technique (Carlson and Makiejus, 1990). The rank order of FPTs from highest to lowest is indicated by the numbers in the figure. […] In the Series 2 experiments, WBT measurements were obtained from each of the saline-injected and PDTC-injected mice on days 0, 9, 21 and 40 of the experiment.
As a first step in examining the potential effects of PDTC treatment on WBT tension development, the slope of the decline in FPTs was evaluated for each recording session for each mouse examined in the Series 2 experiments (FIG. 19A, 19B). This measure essentially provides a “fatigue index” (FI) since the slope of the decline in FPTs is a direct measure of the average magnitude of the decline in FPT per individual pull for rank-ordered pulls number 2 through 10. If 10 individual pulls obtained during the recording session have identical magnitudes representing the highest FPT, then the FI equals 0. In contrast, a 50% reduction in FPT per pull would produce an FI equal to −0.5.
To examine the potential effect of PDTC treatment on FI in age matched adult mdx mice, a pre-treatment FU was obtained during a typical recording session from each of 10 mdx mice used in the Series 2 investigations (age 9.5 to 16 months at beginning of study). Five of the mice were subsequently treated with daily injections of vehicle (HEPES buffered Ringer's solution) and 5 of the mice were treated with daily injections of 50 mg/kg PDTC. Recordings for each of the mice were subsequently obtained on days 9, 21, and 40 of the treatment period (e.g., FIG. 19). To determine the potential effects of treatment on FI, the FIs obtained on days 9, 21, and 40 (e.g., FIG. 19) were each normalized to the pre-treatment FI for each of the 10 mice used in the study. […] A decrease in the FI indicating a reduction in the average loss of tension per pull during the course of the study would produce normalized FIs less than one, no change in FI would be associated with normalized FIs equal to 1.0, and increases in FI would produce normalized FIs greater than 1.0.
Mdx (C57 Bl10-mdx) and nondystrophic (C57Bl10-SnJ) mice were obtained from Jackson laboratories and bred under conditions approved by the Institutional Animal Care and Use Committee (IACUC). All studies were performed in accordance with the guidelines provided by the IACUC. Male and female PDTC treated mdx mice received daily intraperitoneal (ip) injections of 50 mg/kg pyrollidine dithiocarbamate (PDTC; Sigma P8765) dissolved in sterile-filtered (0.2 μm) HEPES-buffered Ringers solution (147.5 mM NaCl, 5 mM KCl, 2 mM CaCl2, 11 mM glucose, 5 mM Hepes, pH 7.35). Age- and gender-matched groups of vehicle-treated mice received corresponding injections of HEPES Ringers. See Carlson et al., 2005. The PDTC experiments were conducted on two series of mature adult mdx mice (9.5-16 month; 19-20 months) and on a series of young adult (1 month) mice. In each case, the mice in the experimental and vehicle-treated groups were matched according to age and gender with an equal number of males and females in each group. WBT tension measurements were obtained prior to initiating treatment and on multiple occasions following at least 3 weeks (20 days) of treatment.
A group of 30 day-old mdx mice were exposed to daily ip injections (30 day) of 40 mg/kg UDCA (Sigma #5127; 2 mg/ml; N=12 experimental) in an isotonic saline vehicle (1.02% NaCl, pH 8.4,) or a synthetic taurine derivative of UDCA (tauroursodeoxycholic acid, TUDCA, SpA Laboratorio Farmacologico, Cenate Sotto, Italy; 6 mg/ml; N=4 experimental) administered in a saline vehicle (NaCl 6 g/l, KCl 0.3 g/l, CaCl2 0.2 g/l, Na acetate 4 g/l, 300 mosM/l, pH 6.1).
WBT measurements were obtained as indicated in Examples 5 through 7 by placing an approximately 0.5 inch square piece of adhesive tape around the tail about 1 inch from the tip. […]

[1] = individual 6 month mdx male, 50 mg/kg for 30 days (FIG. 34C)
[2] = mature mdx, Series 2 through 4, post-treatment (at least 20 days), p<0.05
[3] = mature mdx, Series 2 through 4, p<0.05

SMILES: S=C(S)N1CCCC1 [PDTC, pyrrolidine dithiocarbamate]
- nuclear NF-κB activation in mdx quadriceps (nuclear NF-κB activation): effectively reduced
- proportion of total cellular NFκB in the cytosolic fraction (NFκB): increases
- proportion of nuclear NFκB (NFκB; adult mdx): reduces
- total cellular NFκB (NFκB; adult mdx): reduces
- functional reserve FR (WBT10/WBT5) (mdx mice; 50 mg/kg 30 consecutive days from about 30 days of age, at 60 days): approximately 0.9
- normalized fatigue index (FI), effect of treatment over days (mdx mice; Series 2, 50 mg/kg daily, Kruskal-Wallis p<0.05, Day 0 vs Day 9 and Day 40): significant effect
- normalized FI vs vehicle-injected (mdx mice; Series 2, Day 40, p<0.05): significantly different
- fatigue index (FI), combined post-treatment results (mdx mice; Series 2, Days 9, 21 and 40 combined, p<0.05 vs vehicle): reducing; also recorded: reduces
- normalized FI vs vehicle-injected (mdx mice; Series 2, Days 9 and 21): failed to reach significance
- FPT10 as percent of FPT1 (mdx mice; [1]): approximately 77%
- maximum FPT (mdx mice; [1]): approximately 310 g
- whole body strength (mdx mice; mature mdx mice): significantly increasing
- WBT5 vs vehicle-injected (mdx mice; [2]): elevated
- WBT10 vs vehicle-injected (mdx mice; [2]): elevated
- FR (WBT10/WBT5) post-treatment vs pre-treatment (mdx mice; [3]): increased
- WBT10 post-treatment vs pre-treatment (mdx mice; [3]): increased
- increase in WBT5 relative to vehicle (mdx mice; young mdx, 60 days of age): did not reach statistical significance
- increase in WBT10 relative to vehicle (mdx mice; young mdx, 60 days of age): did not reach statistical significance
- FR relative to vehicle-injected mdx mice (mdx mice; young mdx, 60 days of age, p<0.01): increased; also recorded: prevents a decline
